Laboratory results taken from patent publication US20200087516A1, “RED FLUORESCENT PROBE FOR USE IN DETECTION OF PEPTIDASE ACTIVITY” (The University of Tokyo, priority 2017, published 2020).

What was measured:
[1] = pKcycl measured values of existing rhodamine derivatives (model structures); format: physicochemical; conditions: Table 1, model structures
Description: A formula that calculates pKcycl from the free energy difference of the closed-ring form/ring-opened form by the analyzed cationic reaction was derived, assuming that acid-base equilibrium (lateral direction in the model) is reached quickly enough in the HM groups and amino groups. When the calculation results of close-1, open-1 were used as this free energy difference, it was understood that pKcycl of existing derivatives is accurately reproduced.

[2] = tested on: γ-Glutamyl transpeptidase (GGT); assay: Enzyme assay of fluorescent probes: fluorescence intensity change on GGT addition; format: biochemical; conditions: 1 μM probe, 10 mM NaPi buffer pH 7.4, 37° C., 1.1 U GGT; 585 nm (probe 1), 613 nm (probe 2)
Method: γ-Glutamyl transpeptidase (GGT) was added to fluorescent probes 1 and 2 of the present invention, and the changes in fluorescence intensity were measured.
Fluorescent probe 1 or 2 was dissolved to make 1 μM in 2.5 mL of 10 mM NaPi buffer (pH 7.4) containing 0.03% DMSO. The solution, kept at 37° C., was stirred using a magnetic stirrer, and the fluorescence intensity was measured. 1.1 U of GGT was added two minutes after the start of measurement in experiments other than the negative control. The fluorescence intensity of fluorescent probe 1 at 585 nm was measured for a total of 6000 seconds and the fluorescence intensity of probe 2 at 613 nm was measured for a total of 2400 seconds, and plotted as a function of time elapsed. The excitation wavelength was 550 nm for fluorescent probe 1 and 593 nm for fluorescent probe 2; the slit width was 2.4 nm, 5.0 nm for both excitation and fluorescence, and the photomultiplier tube voltage was 700 V.
As a result, the fluorescence intensity was confirmed to increase due to addition of GGT in the case of both fluorescent probes 1 and 2. The quantum yield of fluorescent probe 1 was 0.58 at pH 3.0. The quantum yield of fluorescent probe 2 was 0.26 at pH 3.0.

[3] = Fluorescence quantum yield; format: physicochemical; conditions: pH 3.0
[4] = Absorption/fluorescence spectrum measurement of the fluorescent probes (pKcycl from absorption spectra); format: physicochemical; conditions: computed from absorption spectra (FIG. 2, FIG. 4)
Description: The absorption spectra and fluorescence spectra of fluorescent probe 1 (gGlu-MHM4ThPCR550) and fluorescent probe 2 (gGlu-HM3ThPSiR600) synthesized in Example 1 were each measured.
FIGS. 2 and 3 respectively show the absorption spectra and fluorescence spectra of fluorescent probe 1 (gGlu-MHM4ThPCR550) and, as a comparison, MHM4ThPCR550 having no gGlu group. The pKcycl values computed from the results in FIG. 2 are shown below in Table 3.
The absorption spectra of HM3ThPSiR600 and HM3ThPAcSiR600 having no gGlu group are also shown as a comparison.

[5] = tested on: SHIN3 cells disseminated intraperitoneally; assay: In vivo imaging using cancer peritoneal dissemination model mice; conditions: 100 μM, 300 μL intraperitoneally, five minutes after administration
Method: A quantity of 300 μL of 100 μM fluorescent probes 1 and 2 was injected intraperitoneally into model mice that had been injected intraperitoneally with SHIN3. After five minutes, the mice were placed under isoflurane anesthesia and laparotomized, and imaging was conducted by a Maestro imager.
Fluorescence spectrum imaging was conducted using a mouse model in which SHIN3 cells had been disseminated intraperitoneally. SHIN3-disseminated model mice were established by intraperitoneally injecting 3×10^6 SHIN3 cells suspended in 300 μL of PBS(−) into seven-week-old female nude mice. The experiment was conducted 29-30 days after injection. The probe solution (100 μM, 300 μL) dissolved in PBS(−) was injected intraperitoneally and allowed to stand for five minutes. The mice were then anesthetized by inhalation of isoflurane, and the skin of the abdomen was cut open. The intestine was removed from the incision, placed on a black rubber plate, and the mesentery was spread. It was applied dropwise to the spread mesentery. Fluorescence imaging was conducted using a Maestro™ Ex In-Vivo Imaging System (CRi Inc.). […] An image with the wavelength of fluorescence derived from the probe cut out or an image spectrally unmixed with autofluorescence is shown. […]

| Structure (SMILES) | pKcycl (Measured) [1] | change in fluorescence intensity due to addition of GGT [2] | quantum yield [3] | pKcycl (Measured) [4] | fluorescence imaging of tumors on the mesentery [5] |
| --- | --- | --- | --- | --- | --- |
| N=c1ccc2c(-c3ccccc3CO)c3ccc(N)cc3oc-2c1 [HMRG] | 8.1 | – | – | – | – |
| C[Si]1(C)c2cc(N)ccc2C2(OCc3sccc32)c2ccc(NC(=O)CC[C@H](N)C(=O)O)cc21 (stereo partly drawn) [fluorescent probe 2] | – | increase | 0.26 | 5.4 | small tumors having adequate contrast from the background could be observed |
| CC1OC2(c3ccc(N)cc3C(C)(C)c3cc(NC(=O)CC[C@H](N)C(=O)O)ccc32)c2ccsc21 (stereo partly drawn) [fluorescent probe 1] | – | increase | 0.58 | 6.3 | small tumors having adequate contrast from the background could be observed |
